Patent US7189751B2, “Oxa(thia)zolidine compounds, process for preparation thereof and anti-inflammatory agents” (Nippon Soda Co., Ltd., priority 2001, dated 2007)

Legend:
[1] = test system: acetic acid induced writhes; assay: Acetic acid writhing; assay type: in vivo, mouse
Procedure: Pharmacological Test Example 4: Acetic Acid Wirthing
This test was carried out referring to the method of Inoue, K., Motonaga, A. & Nishimura, T (Arzneimittel Forshung/Drug Research, 41 (1): 235–239 (1991)). More specifically, 7.5 mL/kg of 0.9% acetic acid solution was injected intraperitoneally into an ICR-strain male mouse (5 to 7 weeks old), and the induced writhes (characteristic behaviors of convulsive contracting the abdomen, twisting the body and/or extending the legs) were observed. Number of writhes of each mouse was measured during 10 to 20 min. period after acetic acid administration. […] The analgesic activity of the compounds according to the present invention was evaluated on the basis of the degree of inhibiting the number writhes by the administration of the compounds. As the positive control, indomethacin or aspirin was administrated. The analgesic activity of the compounds according to the present invention measured in this test were exemplified in Table 7.

[2] = test system: Mouse Ear Edema Induced by TPA; assay: Mouse ear edema induced by TPA; assay type: in vivo; settings: topical, 0.3 mg/20 μL/ear × 2; ICR male mouse; 6 hours after TPA
Procedure: Pharmacological Test Example 2: Mouse Ear Edema Induced by TPA
This test was carried out referring to the method of Carlson, R. P. et al. (Agents and Actions, 17(2): 197–204 (1985).) and the method of Chang, J. (European Journal of Pharmacology, 142: 197–205 (1987).). More specifically, 5 μg/20 μL of TPA (Sigma Chemical Co.), dissolved with ethanol, was topically applied to the anterior and posterior surfaces of the right ear of an ICR-strain male mouse (6–7 weeks old). 6 hours later, the thickness of each ear at the particular part was respectively measured three times using a digimatic micrometer to calculate the mean value. Ear edema was determined by subtracting the mean thickness of the left ear as without treatment from that of the right ear as TPA-applied. Topical application activity was evaluated by applying an acetone solution of the compound of the present invention or 0.1% Tween 80/acetone solution thereof similarly to the anterior and posterior surfaces of the right ear 30 min. before and 15 min. after the TPA-application. […] Oral administration activity was evaluated by administrating 0.2% Tween 80 suspension of the compound of the present invention forcibly and perorally to the mouse an hour prior to the TPA-application. As the positive control, 100 mg/kg of Hydrocortisone (Sigma Chemical Co., H 4001) suspension was applied to the mouse similarly as for the compound of the present invention.

CCOC(=O)C(=C1N[C@@H](C)[C@H](c2ccc(Cl)cc2)S1)[N+](=O)[O-] (relative stereo) [Compound 2-29, Trans-5-(4-chlorophenyl)-4-methyl-2-(1-ethoxycarbonyl-1-nitromethylene)-thiazolidine]
Number of writhes (Mean ± S.E.) ([1]; i.p. 1 mg/kg, 30 min before, vehicle i.p. 25.2 ± 2.2): 5.5 ± 1.9
Number of writhes (Mean ± S.E.) ([1]; p.o. 10 mg/kg, 120 min before, vehicle p.o. 23.5 ± 3.1): 1.5 ± 0.7
Ear Edema Inhibition (%) [2]: 78.6%
